Entries after “also recorded” stand apart in the source; their conditions may differ.
Legend:
5-FU induced weight loss = assay: Protection from 5-FU induced weight loss by uridine alone or uridine plus TK-90; type: in vivo, CD-1 mice
Source text: Weight loss is one of the cardinal features of mucositis. […] Controls include PBS alone at times mimicking the time for 5-FU and combined uridine and TK-90 treatments. There were n=6 animals in all groups.

plasma citrulline = assay: Plasma citrulline after 5-FU (LC/MS/MS-Isotope assay), surrogate marker for mucositis; type: in vivo, C57BL/6 female mice; settings: Day 3
Description: The chemotherapeutic challenge was diminished plasma citrulline by 5-FU treatment. The aim of this study was to explore whether a uridine phosphorylase inhibitor could prevent lowered plasma citrulline induced by 5-FU.
TK-90 solution was prepared at a concentration of 500 mg/mL in sterile PBS. Eight animals were used for Groups 1,2 and 3.
Osmotic pumps were placed inside the subcutaneous tunnel. Incision was sealed with Vetbond tissue adhesive and wound clips.
Blood collections were done to animals anesthetized with ketamine (ip 100 mg/kg). Whole blood (˜0.8 mL) was drawn through the retro-orbital sinus using a heparin coated micro-hematocrit tube and collected into a heparin microtainer tube. Blood samples were transferred into fresh 1.5 mL microcentrifuge tubes and centrifuged for 5 minutes at 10,000×g using an Eppendorf Minispin Plus stored in a 4° C. refrigerator. Following collection of the plasma samples, the animals were sacrificed on Day 3 by cervical dislocation and properly disposed. […]
Thawed plasma samples from the study were analyzed for citrulline using a published LC/MS/MS-Isotope assay. (Jones et al., Development and validation of a LC-MS/MS assay for quantitation of plasma citrulline for application to animal models of the acute radiation syndrome across multiple species,” Anal Bioanal Chem. (2014) 406(19):4663-75).

[1] = patients who receive 5-FU for their disease; cited from earlier work
[2] = test system: panel of cytokines and related biochemicals; assay: Plasma cytokine changes induced by 5-FU, multiplex ELISA on plasma of Experiment III; type: in vivo, C57BL/6 female mice; settings: Day 3; 200 mg/kg 5-FU ip plus 6000 mg/kg TK-90 osmotic pump over 24 hours; vs 5-FU alone
Description: The chemotherapeutic challenge was cytokine changes induced by 5-FU treatment.
Plasma samples from Experiment III were analyzed for a panel of cytokines and related biochemicals by multiplex ELISA. […] IL-1B, TNF-α, and IL-6 are pro-inflammatory cytokines known to be elevated with mucositis. (Logan et al., “The role of pro-inflammatory cytokines in cancer treatment-induced alimentary tract mucositis: pathobiology, animal models and cytotoxic drugs,” Cancer Treat Rev. (2007) 33(5):448-60; Ong et al., “Pro-inflammatory cytokines play a key role in the development of radiotherapy-induced gastrointestinal mucositis,” Radiat Oncol. (2010) (16) 5:22). TK-90 reverses elevation of all three of these cytokines (FIGS. 5, 6 and 7). IL-2 is a pleiotropic cytokine that drives growth and activation of inflammatory cells such as T-cells, NK cells, etc. IL-9 and IL-15 signal through IL-2. TK-90 reverse the 5-FU induced elevation of all three of these cytokines (FIGS. 8, 9, and 10). IL-12 is a cytokine linked to generation of an immune response. Another cytokine associated with generation of an immune response is IL-5. TK-90 reverse the 5-FU induced elevation of IL-12 and IL5 (FIGS. 11, 12 and 13). IL-10 is a cytokine that plays a central role in limiting host immune response. TK-90 reverses the elevation of IL-10 induced by the 5-FU treatment possibly allowing an immune response to proceed to potentially clear damaged tissue (FIG. 14). GM-CSF and M-CSF both stimulate cell mediators of inflammation. TK-90 reverse the 5-FU induced elevation of both GM-CSF and […] (FIGS. 15 and 16). MIP-2, and KC are chemokines that function much like GM-CSF, and M-CSF to stimulate cell mediators of inflammation TK-90 reverse the 5-FU induced elevation of the chemokines (FIGS. 17 and 18). 5-FU decreases eotaxin, a chemokine that recruits immune-related mediators like eosinophils into inflammatory sites (FIG. 19). TK-90 reverses this decrease.

[3] = Side effects of TK-90 (clinical trials); settings: in vivo
uridine = assay: Systemic uridine after administration of TK-90; type: in vivo
[4] = test system: weight loss induced by 5-FU; settings: 400 mg/kg 5-FU ip Day 0 plus 5333 mg/kg sc TK-90 by osmotic pump over 24 hours; compared to 5-FU alone
Description: The chemotherapeutic challenge was weight loss induced by 5-FU (FIG. 2). […] The aim of this study was to explore whether 5-FU combined with a uridine phosphorylase inhibitor provides protection from weight loss, a principal toxicity of 5-FU.
Groups of CD-1 female mice entrained to light:dark (12:12 hours), and given food and water ad libitum, were used for this experiment. The mean weight of the mice at the start of the experiment was approximately 20 g. Control mice were injected ip with sterile PBS, the vehicle control (Group 1). Group 2 and Group 3 mice were injected, ip, with 400 mg/kg 5-FU (Sigma) dissolved in PBS. A 24-hour osmotic pump (ALZET® micro-osmotic pump, Alza Co) was implanted into Group 3 animals. The pumps were loaded with 200 μL (2001D osmotic pump) of a 500 mg/mL solution of TK-90 (FIG. 2) in PBS. The TK-90 dose over the 24-hour infusion was 5333 mg/kg. The four animals were used for Group 1 and 8 animals were used for Groups 2 and 3.
For the implantation of the osmotic pump, animals were anesthetized with 100 mg/kg ketamine prior to pump implantation. […]
Animals were sacrificed on Day 5 by cervical dislocation and properly disposed. Animal weights were recorded daily for 6 days and the percent difference between Day 0 and Day 5 at termination was calculated.

[5] = man and animals; cited from earlier work
[6] = cited from earlier work

For `O=c1[nH]cc(F)c(=O)[nH]1` [Compound 5-FU, 5-flurouracil], the “percent change in weight Day 5 versus Day 0” value (from here on “percent change”) (5-FU induced weight loss; 80 mg/kg 5-FU qdx5 ip alone, compared to PBS vehicle control) is given as “robust weight loss”, the plasma citrulline concentration (plasma citrulline; 200 mg/kg 5-FU ip alone, compared to PBS vehicle control) is given as “significant reduction in citrulline” and the “patients who develop mucositis” value [1] is given as “Approximately 80%”.
With `Cc1cn2c(nc1=O)O[C@H]1[C@H](O)[C@@H](CO)O[C@H]12` [TK-90] the “percent change” value (5-FU induced weight loss; 80 mg/kg 5-FU qdx5 ip with 750 mg/kg uridine and 120 mg/kg TK-90 bid, compared to 5-FU alone) was “protected from the weight loss”, the plasma citrulline concentration (plasma citrulline; 200 mg/kg 5-FU ip plus 6000 mg/kg TK-90 by osmotic pump over 24 hours starting 4 hours post 5-FU, compared to 5-FU alone) was “reverses the decrease in plasma citrulline; also recorded: robust, statistically significant rebound in plasma citrulline” and the “plasma GM-CSF” value [2] was “highly significantly different; also recorded: reverses the increase in plasma GM-CSF”. The “plasma IL-1β” value [2] was “reverses the increase in plasma IL-1β”, the “plasma IL-2” value [2] was “reverses the increase in plasma IL-2” and the “plasma IL-6” value [2] was “reverses the increase in plasma IL-6”. The “plasma IL-9” value [2] was “highly significantly different; also recorded: reverses the increase in plasma IL-9”, the “plasma IL-10” value [2] was “highly significantly different; also recorded: reverses the increase in plasma IL-10” and the “plasma IL-12 (P40)” value [2] was “highly significantly different; also recorded: reverses the increase in plasma IL-12 (P40)”. The “plasma IL-12 (P70)” value [2] was “highly significantly different; also recorded: reverses the increase in plasma IL-12 (P70)”, the “plasma IL-15” value [2] was “highly significantly different; also recorded: reverses the increase in plasma IL-15” and the “plasma KC (keratinocytes-derived chemokine)” value [2] was “significantly different; also recorded: reverses the increase in plasma KC”. For the same molecule, the “plasma M-CSF” value [2] was “reverses the increase in plasma M-CSF”, the “plasma MIP-2” value [2] was “reverses the increase in plasma MIP-2” and the “plasma TNF-α” value [2] was “reverses the increase in plasma TNF-α”. For the same molecule, the plasma eotaxin [2] was “reverses the decrease in plasma eotaxin”, the side effects [3] was “no known side effects” and the systemic uridine (uridine) was “increases systemic uridine”. The “percent weight change on Day 5 versus Day 0” value [4] was “protected from the weight loss”.
In the case of `O=c1ccn([C@@H]2O[C@H](CO)[C@@H](O)[C@H]2O)c(=O)[nH]1` [uridine], the “percent change” value (5-FU induced weight loss; 80 mg/kg 5-FU qdx5 ip with 750 mg/kg uridine bid, compared to 5-FU alone) is given as “statistically significant but much less”, the “half-life of administered uridine” value [5] is given as ~3 min and the “toxicity of continuous infusions of high-dose uridine” value ([6]; continuous infusion) is given as “high fever, cellulitis, and superior vena cava syndrome”. For the same molecule, the “toxicity of orally administered uridine” value ([6]; oral, high-dose, clinical studies) was “considerable GI dysfunction; also recorded: severe patient diarrhea, phlebitis and pyrogenic reactions”.

From patent US12109222B2, “Methods and compositions for treating mucositis” (Tosk, Inc., priority 2018, dated 2024)
